From US7705004B2, “Protein kinase inhibitors” (Portola Pharmaceuticals, Inc., priority 2007, dated 2010)

tested on: human platelet-rich plasma (PRP); assay: Convulxin-induced aggregation assay (cuvette light transmittance); type: cell-based; conditions: 125-250 ng/mL Convulxin, read-out: IC50, inhibition of convulxin-induced aggregation of platelet rich plasma
Procedure: For preparation of human platelet-rich plasma (PRP) for aggregation assays, human venous blood was collected from healthy, drug-free volunteers into 0.38% sodium citrate (0.013 M, pH 7.0 final). PRP was prepared by centrifugation of whole blood at 160×g for 20 minutes at room temperature. The PRP layer was removed, transferred to a new tube, and the platelet count was adjusted, if necessary, to achieve a platelet concentration of ˜3×10^8 platelets/mL using platelet-poor plasma (PPP). PPP was prepared by centrifugation of the remaining blood sample (after removal of PRP) for 20 minutes at 800×g. This preparation of PRP may be subsequently used for aggregation assays in either a 96-well plate or standard cuvette aggregometry.
Inhibition of Convulxin-induced aggregation was determined by cuvette light transmittance aggregation assays. Serial dilutions (1:2) of test compounds were prepared in 30% DMSO in a 96-well V-bottom plate (final DMSO concentration in the cuvette was 0.3%). The test compound (5 μl of serial dilutions in DMSO) was preincubated with PRP for 20 minutes prior to initiation of the aggregation reactions, which were performed in a ChronoLog aggregometer by addition of agonist (125-250 ng/mL Convulxin) to 495 μL of PRP at 37° C. The aggregation reaction was recorded for 4 minutes, and the maximum extent of aggregation was determined by the difference in extent of aggregation at baseline, compared to the maximum aggregation that occurred during the 4 minute period of the assay. Inhibition of aggregation was calculated as the maximum aggregation observed in the presence of inhibitor, compared to that in the absence of inhibitor. IC50s were derived by non-linear regression analysis.

| Structure (SMILES) | IC50 |
| --- | --- |
| CC(=O)N1CCN(c2ccc(Nc3nc(Nc4ccc5c(C)n[nH]c5c4)c4cc[nH]c4n3)cc2)CC1 [Compound 2-1, 1-(4-(4-(4-(3-methyl-1H-indazol-6-ylamino)-7H-pyrrolo[2,3-d]pyrimidin-2-ylamino)phenyl)piperazin-1-yl)ethanone] | ≤ 50 µM |
| CC(=O)N(C)c1ccc(Nc2nc(Nc3ccc4cn[nH]c4c3)c3cc[nH]c3n2)cc1 [Compound 6-1, N-(4-(4-(1H-indazol-6-ylamino)-7H-pyrrolo[2,3-d]pyrimidin-2-ylamino)phenyl)-N-methylacetamide] | ≤ 50 µM |
| OC1CCN(c2ccc(Nc3nc(Nc4ccc5cn[nH]c5c4)c4cc[nH]c4n3)cc2)CC1 [Compound 7-1, 1-(4-(4-(1H-indazol-6-ylamino)-7H-pyrrolo[2,3-d]pyrimidin-2-ylamino)phenyl)piperidin-4-ol] | ≤ 50 µM |
| CSc1ccc(Nc2nc(Nc3ccc4cn[nH]c4c3)c3cc[nH]c3n2)cc1 [Compound 10-1, N4-(1H-indazol-6-yl)-N2-(4-(methylthio)phenyl)-7H-pyrrolo[2,3-d]pyrimidine-2,4-diamine] | ≤ 50 µM |
| C[S+]([O-])c1ccc(Nc2nc(Nc3ccc4cn[nH]c4c3)c3cc[nH]c3n2)cc1 (centres unmarked) [Compound 10-2, N4-(1H-indazol-6-yl)-N2-(4-(methylsulfinyl)phenyl)-7H-pyrrolo[2,3-d]pyrimidine-2,4-diamine] | ≤ 50 µM |
| NS(=O)(=O)c1ccc(Nc2nc(Nc3ccc4cn[nH]c4c3)c3cc[nH]c3n2)cc1 [Compound 11-1, 4-(4-(1H-indazol-6-ylamino)-7H-pyrrolo[2,3-d]pyrimidin-2-ylamino)benzenesulfonamide] | ≤ 50 µM |
| NC(=O)c1ccc(Nc2nc(Nc3ccc4cn[nH]c4c3)c3cc[nH]c3n2)cc1 [Compound 12-1, 4-(4-(1H-indazol-6-ylamino)-7H-pyrrolo[2,3-d]pyrimidin-2-ylamino)benzamide] | ≤ 50 µM |
| CN1CCN(c2ccc(Nc3nc(Nc4ccc5cn[nH]c5c4)c4cc[nH]c4n3)cc2)CC1 [Compound 13-1, N4-(1H-indazol-6-yl)-N2-(4-(4-methylpiperazin-1-yl)phenyl)-7H-pyrrolo[2,3-d]pyrimidine-2,4-diamine] | ≤ 50 µM |
| CC(=O)N1CCN(c2ccc(Nc3nc(Nc4ccc5[nH]ncc5c4)c4cc[nH]c4n3)cc2)CC1 [Compound 14-1, 1-(4-(4-(4-(1H-indazol-5-ylamino)-7H-pyrrolo[2,3-d]pyrimidin-2-ylamino)phenyl)piperazin-1-yl)ethanone] | ≤ 50 µM |
| CC(=O)N1CCN(c2ccc(Nc3nc(Nc4ccc5cn[nH]c5c4)c4c(C)c[nH]c4n3)cc2)CC1 [Compound 15-1, 1-(4-(4-(4-(1H-indazol-6-ylamino)-5-methyl-7H-pyrrolo[2,3-d]pyrimidin-2-ylamino)phenyl)piperazin-1-yl)ethanone] | ≤ 50 µM |
| CC(=O)N(C)c1ccc(Nc2nc(Nc3ccc4nc[nH]c4c3)c3cc[nH]c3n2)cc1 [Compound 17-1, N-(4-(4-(1H-benzo[D]imidazol-6-ylamino)-7H-pyrrolo[2,3-d]pyrimidin-2-ylamino)phenyl)-N-methylacetamide] | ≤ 50 µM |
| CN(C)C(=O)C1CCN(c2ccc(Nc3nc(Nc4ccc5nc[nH]c5c4)c4cc[nH]c4n3)cc2)CC1 [Compound 18-1, 1-(4-(4-(1H-benzo[d]imidazol-6-ylamino)-7H-pyrrolo[2,3-d]pyrimidin-2-ylamino)phenyl)-N,N-dimethylpiperidine-4-carboxamide] | ≤ 50 µM |
| c1cc2c(Nc3ccc4scnc4c3)nc(Nc3ccc4cn[nH]c4c3)nc2[nH]1 [Compound 19-1, N4-(benzo[d]thiazol-5-yl)-N2-(1H-indazol-6-yl)-7H-pyrrolo[2,3-d]pyrimidine-2,4-diamine] | ≤ 50 µM |
| c1cc2c(Nc3ccc4ncsc4c3)nc(Nc3ccc4cn[nH]c4c3)nc2[nH]1 [Compound 20-1, N4-(benzo[d]thiazol-6-yl)-N2-(1H-indazol-6-yl)-7H-pyrrolo[2,3-d]pyrimidine-2,4-diamine] | ≤ 50 µM |
